Measurements as given in PubChem BioAssay AID1745844 (Carcinogenic Potency Database (CPDB), 2022).
Values joined by “and” are separate entries in the source; they are usually repeats but may differ in a detail not shown here. Identical values can stand only once. Active and inactive are the calls of the source. The rule behind the calls is not given here.

Test system: rodent lifetime carcinogenesis bioassay, tumor incidence TD50
Experiment: chronic cancer bioassays in animals – CPDB, compiled studies (AID 1745844)
[1] = mouse, strain B6AKF1, females, oral dosing, site: any site (literature study), lesion: several types, types named in the paper, dosed 76 weeks, study length 76 weeks
[2] = mouse, strain B6AKF1, females, oral dosing, site: liver, lesion: hepatoma, dosed 76 weeks, study length 76 weeks
[3] = mouse, strain B6AKF1, females, oral dosing, site: lung, lesion: adenoma, dosed 76 weeks, study length 76 weeks
[4] = mouse, strain B6AKF1, males, oral dosing, site: any site (literature study), lesion: several types, types named in the paper, dosed 76 weeks, study length 76 weeks
[5] = mouse, strain B6AKF1, males, oral dosing, site: liver, lesion: hepatoma, dosed 76 weeks, study length 76 weeks
[6] = mouse, strain B6AKF1, males, oral dosing, site: lung, lesion: adenoma, dosed 76 weeks, study length 76 weeks
[7] = mouse, strain B6C3F1, females, oral dosing, site: any site (literature study), lesion: several types, types named in the paper, dosed 76 weeks, study length 76 weeks
[8] = mouse, strain B6C3F1, females, oral dosing, site: liver, lesion: hepatoma, dosed 76 weeks, study length 76 weeks
[9] = mouse, strain B6C3F1, females, oral dosing, site: lung, lesion: adenoma, dosed 76 weeks, study length 76 weeks
[10] = mouse, strain B6C3F1, males, oral dosing, site: any site (literature study), lesion: several types, types named in the paper, dosed 76 weeks, study length 76 weeks
[11] = mouse, strain B6C3F1, males, oral dosing, site: liver, lesion: hepatoma, dosed 76 weeks, study length 76 weeks
[12] = mouse, strain B6C3F1, males, oral dosing, site: lung, lesion: adenoma, dosed 76 weeks, study length 76 weeks
[13] = mouse, strain B6C3F1, females, by gavage, site: any site (literature study), lesion: several types, types named in the paper, dosed 103 weeks, study length 104 weeks
[14] = mouse, strain B6C3F1, females, by gavage, site: lung, lesion: alveolar/bronchiolar adenoma + alveolar/bronchiolar carcinoma, dosed 103 weeks, study length 104 weeks
[15] = mouse, strain B6C3F1, males, by gavage, site: any site (literature study), lesion: several types, types named in the paper, dosed 103 weeks, study length 104 weeks
[16] = mouse, strain B6C3F1, males, by gavage, site: liver, lesion: hepatocellular adenoma + hepatocellular carcinoma + neoplastic nodule, dosed 103 weeks, study length 104 weeks
[17] = mouse, strain B6C3F1, males, by gavage, site: lung, lesion: alveolar/bronchiolar adenoma + alveolar/bronchiolar carcinoma, dosed 103 weeks, study length 104 weeks
[18] = rat, strain Fischer 344, males, by gavage, site: any site (literature study), lesion: several types, types named in the paper, dosed 103 weeks, study length 104 weeks

For `O=C(O)Cc1c[nH]c2ccccc12`, the carcinogen call [1] was “negative (inactive)”, the carcinogen call [2] was “negative (inactive)” and the carcinogen call [3] was “negative (inactive)”. The carcinogen call [4] was “negative (inactive)”, the carcinogen call [5] was “negative (inactive)” and the carcinogen call [6] was “negative (inactive)”. The TD50 [7] was 538 mg/kg/day (inactive), the carcinogen call [8] was “negative (inactive)” and the TD50 [9] was 538 mg/kg/day (inactive). The TD50 [10] was 40.3 mg/kg/day (inactive), the TD50 [11] was 113 mg/kg/day (inactive) and the TD50 [12] was 500 mg/kg/day (inactive).

`CN(C)C=O` was tested, and the TD50 (mouse, strain Charles River CD1, females, inhaled, site: liver, lesion: hepatocellular adenoma, dosed 78 weeks, study length 78 weeks) was 15800 mg/kg/day (inactive), the carcinogen call (mouse, strain Charles River CD1, males, inhaled, site: liver, lesion: hepatocellular adenoma, dosed 78 weeks, study length 78 weeks) was “negative (inactive)” and the TD50 (mouse, strain Charles River CD1, males, inhaled, site: liver, lesion: hepatocellular carcinoma, dosed 78 weeks, study length 78 weeks) was 3070 mg/kg/day (inactive). For the same compound, the carcinogen call (rat, strain Charles River CD (Sprague-Dawley), females, inhaled, site: liver, lesion: hepatocellular adenoma, dosed 104 weeks, study length 104 weeks) was “negative (inactive)”, the TD50 (rat, strain Charles River CD (Sprague-Dawley), males, inhaled, site: liver, lesion: hepatocellular adenoma, dosed 104 weeks, study length 104 weeks) was 2640 mg/kg/day (inactive) and the TD50 (rat, strain Charles River CD (Sprague-Dawley), males, inhaled, site: liver, lesion: hepatocellular carcinoma, dosed 104 weeks, study length 104 weeks) was 3340 mg/kg/day (inactive).

`CC(=O)NNc1ccc(CO)cc1` gave a TD50 (mouse, strain Swiss albino, females, in drinking water, site: blood vessels, lesion: several types, types named in the paper, dosed 115 weeks, study length 115 weeks) of 287 mg/kg/day, a TD50 (mouse, strain Swiss albino, females, in drinking water, site: lung, lesion: several types, types named in the paper, dosed 115 weeks, study length 115 weeks) of 329 mg/kg/day and a TD50 (mouse, strain Swiss albino, males, in drinking water, site: blood vessels, lesion: several types, types named in the paper, dosed 115 weeks, study length 115 weeks) of 252 mg/kg/day. The carcinogen call (mouse, strain Swiss albino, males, in drinking water, site: liver, lesion: hepatoma, dosed 115 weeks, study length 115 weeks) was “negative (inactive)” and the TD50 (mouse, strain Swiss albino, males, in drinking water, site: lung, lesion: several types, types named in the paper, dosed 115 weeks, study length 115 weeks) was 208 mg/kg/day.

Compound `O=NN1CCNCC1` has a TD50 (rat, strain MRC, females, in drinking water, site: any site (literature study), lesion: several types, types named in the paper, dosed 60 weeks, study length 127 weeks) of 5.51 mg/kg/day, a TD50 (rat, strain MRC, males, in drinking water, site: any site (literature study), lesion: several types, types named in the paper, dosed 60 weeks, study length 127 weeks) of 21.6 mg/kg/day and a TD50 (rat, strain MRC, males, in drinking water, site: liver, lesion: hepatoma, dosed 60 weeks, study length 127 weeks) of 6.52 mg/kg/day.

For `Nc1ccc(-c2ccc(F)cc2)cc1`, the TD50 (mouse, strain CBA, females, by gavage, site: liver, lesion: hepatoma, dosed 26 weeks, study length 114 weeks) was 1.09 mg/kg/day, the TD50 (mouse, strain CBA, males, by gavage, site: liver, lesion: hepatoma, dosed 26 weeks, study length 104 weeks) was 1.19 mg/kg/day and the TD50 (mouse, strain CBA, males, by gavage, site: liver, lesion: several types, types named in the paper, dosed 26 weeks, study length 104 weeks) was 1.19 mg/kg/day.

`CCCN(CCC)S(=O)(=O)c1ccc(C(=O)O)cc1` showed a TD50 [13] of 498 mg/kg/day, a TD50 (mouse, strain B6C3F1, females, by gavage, site: liver, lesion: hepatocellular adenoma + hepatocellular carcinoma + neoplastic nodule, dosed 103 weeks, study length 104 weeks) of 540 mg/kg/day and a TD50 (mouse, strain B6C3F1, females, by gavage, site: liver, lesion: hepatocellular adenoma + hepatocellular carcinoma, dosed 103 weeks, study length 104 weeks) of 540 mg/kg/day. It also gave a TD50 (mouse, strain B6C3F1, females, by gavage, site: liver, lesion: hepatocellular adenoma, dosed 103 weeks, study length 104 weeks) of 561 mg/kg/day, a TD50 [14] of 1980 mg/kg/day and a TD50 [15] of 276 mg/kg/day. For the same compound, the TD50 [16] was 731 mg/kg/day, the TD50 [17] was 2320 mg/kg/day and the TD50 (mouse, strain B6C3F1, males, by gavage, site: subcutaneous tissue, lesion: fibroma, dosed 103 weeks, study length 104 weeks) was 2130 mg/kg/day (inactive). The TD50 (rat, strain Fischer 344, females, by gavage, site: any site (literature study), lesion: several types, types named in the paper, dosed 103 weeks, study length 104 weeks) was 1540 mg/kg/day (inactive), the TD50 (rat, strain Fischer 344, females, by gavage, site: liver, lesion: hepatocellular adenoma + hepatocellular carcinoma + neoplastic nodule, dosed 103 weeks, study length 104 weeks) was 1790 mg/kg/day and the TD50 [18] was 296 mg/kg/day. The TD50 (rat, strain Fischer 344, males, by gavage, site: testis, lesion: interstitial-cell adenoma, bilateral + interstitial-cell adenoma, dosed 103 weeks, study length 104 weeks) was 212 mg/kg/day (inactive).

In the case of `CCN(CC)C(=S)[S-].CCN(CC)C(=S)[S-].[Cd+2]`, the TD50 [1] is reported as 47.5 mg/kg/day (inactive), the carcinogen call [2] is reported as “negative (inactive)” and the carcinogen call [3] is reported as “negative (inactive)”. For the same compound, the carcinogen call [4] was “negative (inactive)”, the carcinogen call [5] was “negative (inactive)” and the carcinogen call [6] was “negative (inactive)”. The TD50 [7] was 18 mg/kg/day (inactive), the carcinogen call [8] was “negative (inactive)” and the TD50 [9] was 57.4 mg/kg/day (inactive). For the same compound, the TD50 [10] was 6.2 mg/kg/day (inactive), the TD50 [11] was 16.7 mg/kg/day (inactive) and the TD50 [12] was 25.9 mg/kg/day (inactive).

For `CN(C)C(=O)Cl`, the TD50 (hamster, strain Syrian Golden, males, inhaled, site: nasal cavity, lesion: squamous-cell carcinoma, dosed 112 weeks, study length 112 weeks) was 0.625 mg/kg/day, the TD50 (mouse, strain Ha/ICR, females, i.p., site: abdomen, lesion: sarcoma, dosed 64 weeks, study length 64 weeks) was 5.37 mg/kg/day and the TD50 (mouse, strain Ha/ICR, females, i.p., site: abdomen, lesion: several types, types named in the paper, dosed 64 weeks, study length 64 weeks) was 4.59 mg/kg/day. The TD50 (mouse, strain Ha/ICR, females, i.p., site: lung, lesion: papillary tumor, dosed 64 weeks, study length 64 weeks) was 6.65 mg/kg/day.

For `Nc1nc(N)nc(N)n1`, the carcinogen call (mouse, strain B6C3F1, females, in feed, site: any site (literature study), lesion: several types, types named in the paper, dosed 103 weeks, study length 105 weeks) was “negative (inactive)”, the TD50 (mouse, strain B6C3F1, males, in feed, site: any site (literature study), lesion: several types, types named in the paper, dosed 103 weeks, study length 105 weeks) was 3200 mg/kg/day (inactive) and the TD50 (mouse, strain B6C3F1, males, in feed, site: liver, lesion: hepatocellular adenoma + hepatocellular carcinoma + neoplastic nodule, dosed 103 weeks, study length 105 weeks) was 4370 mg/kg/day. The TD50 (rat, strain Fischer 344, females, in feed, site: any site (literature study), lesion: several types, types named in the paper, dosed 103 weeks, study length 105 weeks) was 3930 mg/kg/day, the TD50 (rat, strain Fischer 344, females, in feed, site: liver, lesion: hepatocellular adenoma + hepatocellular carcinoma + neoplastic nodule, dosed 103 weeks, study length 105 weeks) was 4410 mg/kg/day and the TD50 (rat, strain Fischer 344, females, in feed, site: thyroid gland, lesion: c-cell adenoma + c-cell carcinoma, dosed 103 weeks, study length 105 weeks) was 2470 mg/kg/day (inactive). It also gave a TD50 (rat, strain Fischer 344, females, in feed, site: thyroid gland, lesion: c-cell carcinoma, dosed 103 weeks, study length 105 weeks) of 4160 mg/kg/day, a TD50 (rat, strain Fischer 344, males, in feed, site: any site (literature study), lesion: several types, types named in the paper, dosed 103 weeks, study length 105 weeks) of 149 mg/kg/day and a TD50 (rat, strain Fischer 344, males, in feed, site: urinary bladder, lesion: transitional-cell carcinoma + transitional-cell papilloma, dosed 103 weeks, study length 105 weeks) of 679 mg/kg/day. For the same compound, the TD50 (rat, strain Fischer 344, males, in feed, site: urinary bladder, lesion: transitional-cell carcinoma, dosed 103 weeks, study length 105 weeks) was 735 mg/kg/day.

`C#CC(OC(N)=O)(c1ccccc1)c1ccc(Cl)cc1` (stereo not drawn) was tested, and the TD50 (rat, strain Harlan, males, in feed, site: any site (literature study), lesion: several types, types named in the paper, dosed 72 weeks, study length 94 weeks) was 3.88 mg/kg/day, the TD50 (rat, strain Harlan, males, in feed, site: brain, lesion: several types, types named in the paper, dosed 72 weeks, study length 94 weeks) was 462 mg/kg/day and the TD50 (rat, strain Harlan, males, in feed, site: duodenum, lesion: adenocarcinoma, dosed 72 weeks, study length 94 weeks) was 24.9 mg/kg/day. For the same compound, the TD50 (rat, strain Harlan, males, in feed, site: jejunum, lesion: adenocarcinoma, dosed 72 weeks, study length 94 weeks) was 8.78 mg/kg/day and the TD50 (rat, strain Harlan, males, in feed, site: liver, lesion: several types, types named in the paper, dosed 72 weeks, study length 94 weeks) was 58.5 mg/kg/day.

With `CCCCCl` the carcinogen call [13] was “negative (inactive)”, the TD50 (mouse, strain B6C3F1, females, by gavage, site: liver, lesion: hepatocellular adenoma + hepatocellular carcinoma + neoplastic nodule, dosed 103 weeks, study length 105 weeks) was 1380 mg/kg/day and the TD50 [14] was 13100 mg/kg/day. For the same compound, the TD50 (mouse, strain B6C3F1, females, by gavage, site: lung, lesion: alveolar/bronchiolar adenoma + alveolar/bronchiolar carcinoma, dosed 103 weeks, study length 105 weeks) was 1160 mg/kg/day, the TD50 (mouse, strain B6C3F1, females, by gavage, site: lung, lesion: alveolar/bronchiolar carcinoma, dosed 103 weeks, study length 105 weeks) was 1710 mg/kg/day (inactive) and the TD50 [15] was 423 mg/kg/day. The carcinogen call [15] was “negative (inactive)”, the TD50 (mouse, strain B6C3F1, males, by gavage, site: bone marrow + kidney/pelvis + liver + multiple organs + omentum + spleen + thorax, lesion: hemangiosarcoma, dosed 103 weeks, study length 104 weeks) was 2830 mg/kg/day and the TD50 [16] was 808 mg/kg/day and 623 mg/kg/day. For the same compound, the TD50 (mouse, strain B6C3F1, males, by gavage, site: liver, lesion: hepatocellular adenoma + hepatocellular carcinoma, dosed 103 weeks, study length 104 weeks) was 808 mg/kg/day (inactive), the TD50 [17] was 3190 mg/kg/day and the TD50 (rat, strain Fischer 344, females, by gavage, site: any site (literature study), lesion: several types, types named in the paper, dosed 103 weeks, study length 105 weeks) was 100 mg/kg/day (inactive). For the same compound, the TD50 (rat, strain Fischer 344, females, by gavage, site: liver, lesion: hepatocellular adenoma + hepatocellular carcinoma + neoplastic nodule, dosed 103 weeks, study length 105 weeks) was 1510 mg/kg/day, the TD50 [18] was 40.5 mg/kg/day and the TD50 (rat, strain Fischer 344, males, by gavage, site: testis, lesion: interstitial-cell tumor, dosed 103 weeks, study length 104 weeks) was 45.1 mg/kg/day (inactive).
